Our source for the DC50 values is patent US12479840B2, “HMG-CoA reductase degradation inducing compound” (Uppthera, priority 2020, dated 2025).

The target in the experiment is T1, HMG-CoA reductase (Homo sapiens, UniProt P04035).
T1 construct: endogenous in cells; host or cells: HepG2 (Korea Cell Line Bank)
T1 sequence (P04035 1-888): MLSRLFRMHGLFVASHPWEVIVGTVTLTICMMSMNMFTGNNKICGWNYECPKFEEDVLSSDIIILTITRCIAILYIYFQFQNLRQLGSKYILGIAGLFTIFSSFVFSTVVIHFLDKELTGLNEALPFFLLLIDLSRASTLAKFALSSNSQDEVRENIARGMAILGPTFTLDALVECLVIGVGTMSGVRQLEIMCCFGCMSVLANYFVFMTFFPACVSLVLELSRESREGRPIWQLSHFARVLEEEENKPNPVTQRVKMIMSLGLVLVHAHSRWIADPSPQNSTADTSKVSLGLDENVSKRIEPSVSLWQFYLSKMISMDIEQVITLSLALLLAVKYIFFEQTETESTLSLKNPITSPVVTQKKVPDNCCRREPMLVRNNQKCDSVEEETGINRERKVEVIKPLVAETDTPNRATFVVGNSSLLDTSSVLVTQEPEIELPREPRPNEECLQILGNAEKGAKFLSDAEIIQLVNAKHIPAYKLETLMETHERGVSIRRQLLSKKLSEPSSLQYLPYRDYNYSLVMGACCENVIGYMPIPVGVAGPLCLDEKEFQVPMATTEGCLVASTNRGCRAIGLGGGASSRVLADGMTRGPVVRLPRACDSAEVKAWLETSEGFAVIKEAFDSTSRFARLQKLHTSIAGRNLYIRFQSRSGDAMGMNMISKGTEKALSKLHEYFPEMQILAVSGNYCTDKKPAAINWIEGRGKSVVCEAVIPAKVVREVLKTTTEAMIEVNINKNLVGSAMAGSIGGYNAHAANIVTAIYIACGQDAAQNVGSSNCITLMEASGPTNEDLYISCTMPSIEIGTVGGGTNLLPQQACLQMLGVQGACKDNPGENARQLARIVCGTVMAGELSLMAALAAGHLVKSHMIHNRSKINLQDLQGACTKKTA
Kind of experiment: HMG-CoA reductase (HMGCR) degradation in HepG2 cells by western blotting. In kind it is cell-based. Particulars: treated for 18 hours, ratio of HMG-CoA reductase to GAPDH, read-out: DC50. How it is done: HepG2, a human liver cancer cell line, was purchased from the Korea Cell Line Bank (KCLB), Seoul, Korea. The passage in cell culture was maintained at P105 to P110.
The compounds of the present invention were completely dissolved in DMSO and used in the experiment. 2×10^5 cells were seeded for each well of a 12-well plate (SPL), and the cells were cultured in the culture medium in a total volume of 2 ml. Each of the compounds of the present invention and comparative compounds was diluted three folds from the highest concentration of 3 μM to the lowest concentration in 10 points and treated for 18 hours.
Each of the compounds the present invention and comparative compounds was diluted three folds from the highest concentration of 3 μM to the lowest concentration of […] in 10 points and was treated for 18 hours.
For SDS-PAGE and Western blotting, 1×RIPA lysis buffer (Rockland, Cat. No. MB-030-0050; Lot no. 39751), 100× Protease Inhibitor Cocktail (Quartett, Cat. No. PPI1015; Lot no. PCO50038424), Pierce™ BCA protein assay kit (ThermoScientific, Cat. No. 23225; Lot no. UC276876), albumin standard (ThermoScientific, Cat. No. 23209; Lot no. UB269561), 4-15% Mini-PROTEAN TGX stain-free gel (Bio-rad, Cat. No. 4568085; Lot no. L007041B), 10× Tris/Glycine/SDS buffer (Bio-rad, Cat. No. 1610732; Lot no. 10000044375B); 10×TBS (Bio-rad, Cat. No. 1706435; Lot no. 1000045140B), 10% Tween 20 (Cat. No. 1610781; Lot no. L004152B), Color protein standard broad range (NEB, Cat. No. P7719S; Lot no. 10040349), 4× Laemmli sample buffer (Bio-rad, Cat. No. 1610747; Lot no. L004133B), β-mercaptoethanol (Sigma-Aldrich, Cat. No. M3148; Lot no. 60-24-2), SuperBlock™ T20 (TBS) blocking buffer (ThermoScientific, Cat. No. 37536; Lot no. UC282578), 1M sodium azide solution (Sigma-Aldrich, Cat. No. 08591-1 mL-F; Lot no. BCBV4989), α-Rabbit pAb to Ms IgG (abcam, Cat. No. ab97046; Lot no. GR3252115-1), α-Goat pAb to Rb IgG (CST, Cat. No. 7074S; Lot no. 28), α-GAPDH (abcam, Cat. No. ab8245), α-HMGCR (GeneTex, Cat. No. GTX54088; Lot no. 821903509), ECL™ Prime western blotting reagents (GE Healthcare, Cat. No. RPN2232; Lot no. 17001655), Ponceau S solution (Sigma-Aldrich, Cat. No. P7170; Lot no. SLBV4112), Difco™ Skim milk (BD, Cat. No. 232100; Lot no. 8346795), and iBlot® 2 NC Regular stacks (Invitrogen, Cat. No. IB23001; Lot no. 2NR110619-02), were used.
For cell harvesting, the cells were first separated from the plate using trypsin and then washed with the medium and PBS. Specifically, the medium was suctioned off and washed with 1 mL of PBS, and PBS was suctioned off. The cells were treated with 0.5 mL TrypLE™ Express at 37° C. for 7 minutes to separate the cells, and then 0.5 mL of complete medium was added to collect 1 mL of cell culture solution. Then, 1 mL of the cell collection solution was centrifuged at 8,000 rpm for 120 seconds, and the supernatant was removed. After washing with 0.2 mL of PBS, the PBS was removed.
For cell lysis, a lysis buffer was added and cell debris was removed to obtain a cell lysate. Specifically, the cells were treated with 70 μL of 1×RIPA buffer containing a protease inhibitor and incubated for 30 minutes on ice. Then, the cells were centrifuged at 4° C. and 15,000 rpm for 10 minutes to obtain a cell lysate.
Then, a standard curve was obtained using the BCA assay, and the protein mass in the lysate was quantified by substituting the curve. The mixture was incubated at 37° C. for 30 minutes using 20 μL of standard or sample solution, and 200 μL of BCA or Bradford solution, and measured at 562 nm absorbance. Samples were prepared by adding 4× sample buffer so that the quantity of protein added to each well was 15 μg.
Sodium dodecyl sulfate polyacrylamide gel electrophoresis (SDS-PAGE) was performed by setting a running time of 100 minutes at 120 V on a 4-15% Mini-PROTEAN TGX stain-free gel (15 well). Transferring was performed on iBlot® 2 NC Mini stacks at P0 mode of the dry blotting system. […]
For orientation: DC50 means the concentration giving 50% degradation. Take `Cc1ncsc1-c1ccc(CNC(=O)[C@@H]2C[C@@H](O)CN2C(=O)[C@@H](NC(=O)COCCOCCNC(=O)CCC(C)(C)C(=O)O[C@H]2C[C@@H](C)C=C3C=C[C@H](C)[C@H](CC[C@@H]4C[C@@H](O)CC(=O)O4)[C@H]32)C(C)(C)C)cc1` [Compound 9, (S)-(1S,3R,7S,8S,8aR)-8-(2-((2R,4R)-4-hydroxy-6-oxotetrahydro-2H-pyran-2-yl)ethyl)-3,7-dimethyl-1,2,3,7,8,8a-hexahydronaphthalen-1-yl 3-((2S,4R)-4-hydroxy-2-((4-(4-methylthiazol-5-yl)benzyl)carbamoyl)pyrrolidine-1-carbonyl)-2,2,17,17-tetramethyl-5,14-dioxo-7,10-dioxa-4,13-diazaoctadecan-18-oate]: the DC50 was less than 50 nM.

Consider `Cc1ncsc1-c1ccc(CNC(=O)[C@@H]2C[C@@H](O)CN2C(=O)[C@@H](NC(=O)COCCOCCOCCNC(=O)CCC(C)(C)C(=O)O[C@H]2C[C@@H](C)C=C3C=C[C@H](C)[C@H](CC[C@@H]4C[C@@H](O)CC(=O)O4)[C@H]32)C(C)(C)C)cc1` [Compound 10], for which the DC50 was less than 50 nM.

`Cc1ncsc1-c1ccc(CNC(=O)[C@@H]2C[C@@H](O)CN2C(=O)[C@@H](NC(=O)COCCOCCOCCOCCNC(=O)CCC(C)(C)C(=O)O[C@H]2C[C@@H](C)C=C3C=C[C@H](C)[C@H](CC[C@@H]4C[C@@H](O)CC(=O)O4)[C@H]32)C(C)(C)C)cc1` [Compound 11, (S)-(1S,3R,7S,8S,8aR)-8-(2-((2R,4R)-4-hydroxy-6-oxotetrahydro-2H-pyran-2-yl)ethyl)-3,7-dimethyl-1,2,3,7,8,8a-hexahydronaphthalen-1-yl 3-((2S,4R)-4-hydroxy-2-((4-(4-methylthiazol-5-yl)benzyl)carbamoyl)pyrrolidine-1-carbonyl)-2,2,23,23-tetramethyl-5,20-dioxo-7,10,13,16-tetraoxa-4,19-diazatetracosan-24-oate]: the DC50 is less than 50 nM.

Take `Cc1ncsc1-c1ccc(CNC(=O)[C@@H]2C[C@@H](O)CN2C(=O)[C@@H](NC(=O)COCCOCCOCCOCCOCCNC(=O)CCC(C)(C)C(=O)O[C@H]2C[C@@H](C)C=C3C=C[C@H](C)[C@H](CC[C@@H]4C[C@@H](O)CC(=O)O4)[C@H]32)C(C)(C)C)cc1` [Compound 12, (S)-(1S,3R,7S,8S,8aR)-8-(2-((2R,4R)-4-hydroxy-6-oxotetrahydro-2H-pyran-2-yl)ethyl)-3,7-dimethyl-1,2,3,7,8,8a-hexahydronaphthalen-1-yl 3-((2S,4R)-4-hydroxy-2-((4-(4-methylthiazol-5-yl)benzyl)carbamoyl)pyrrolidine-1-carbonyl)-2,2,26,26-tetramethyl-5,23-dioxo-7,10,13,16,19-pentaoxa-4,22-diazaheptacosan-27-oate]: the DC50 was less than 50 nM.

For the compound `C[C@H]1C=C2C=C[C@H](C)[C@H](CC[C@H]3C[C@H](O)CC(=O)O3)[C@H]2[C@@H](OC(=O)NCCOCCOCCOCC(=O)NCC(C)(C)C)C1` [Compound 13, (1S,3R,7S,8S,8aR)-8-(2-((2S,4S)-4-hydroxy-6-oxotetrahydro-2H-pyran-2-yl)ethyl)-3,7-dimethyl-1,2,3,7,8,8a-hexahydronaphthalen-1-yl (14,14-dimethyl-11-oxo-3,6,9-trioxa-12-azapentadecyl) carbamate], the DC50 was greater than 500 nM.

Regarding `Cc1ncsc1-c1ccc(CNC(=O)[C@@H]2C[C@@H](O)CN2C(=O)[C@@H](NC(=O)COCCNC(=O)O[C@H]2C[C@@H](C)C=C3C=C[C@H](C)[C@H](CC[C@@H]4C[C@@H](O)CC(=O)O4)[C@H]32)C(C)(C)C)cc1` [Compound 14, (1S,3R,7S,8S,8aR)-8-(2-((2R,4R)-4-hydroxy-6-oxotetrahydro-2H-pyran-2-yl)ethyl)-3,7-dimethyl-1,2,3,7,8,8a-hexahydronaphthalen-1-yl (2-(2-(((S)-1-((2S,4R)-4-hydroxy-2-((4-(4-methylthiazol-5-yl)benzyl)carbamoyl)pyrrolidin-1-yl)-3,3-dimethyl-1-oxobutan-2-yl)amino)-2-oxoethoxy)ethyl)carbamate], the DC50 lay in the range of 50 to 500 nM.

As for `Cc1ncsc1-c1ccc(CNC(=O)[C@@H]2C[C@@H](O)CN2C(=O)[C@@H](NC(=O)COCCOCCNC(=O)O[C@H]2C[C@@H](C)C=C3C=C[C@H](C)[C@H](CC[C@@H]4C[C@@H](O)CC(=O)O4)[C@H]32)C(C)(C)C)cc1` [Compound 15, (1S,3R,7S,8S,8aR)-8-(2-((2R,4R)-4-hydroxy-6-oxotetrahydro-2H-pyran-2-yl)ethyl)-3,7-dimethyl-1,2,3,7,8,8a-hexahydronaphthalen-1-yl (2-(2-(2-(((S)-1-((2S,4R)-4-hydroxy-2-((4-(4-methylthiazol-5-yl)benzyl)carbamoyl)pyrrolidin-1-yl)-3,3-dimethyl-1-oxobutan-2-yl)amino)-2-oxoethoxy)ethoxy)ethyl)carbamate], the DC50 was less than 50 nM.

Consider `Cc1ncsc1-c1ccc(CNC(=O)[C@@H]2C[C@@H](O)CN2C(=O)[C@@H](NC(=O)COCCOCCOCCNC(=O)O[C@H]2C[C@@H](C)C=C3C=C[C@H](C)[C@H](CC[C@@H]4C[C@@H](O)CC(=O)O4)[C@H]32)C(C)(C)C)cc1` [Compound 16, (1S,3R,7S,8S,8aR)-8-(2-((2R,4R)-4-hydroxy-6-oxotetrahydro-2H-pyran-2-yl)ethyl)-3,7-dimethyl-1,2,3,7,8,8a-hexahydronaphthalen-1-yl ((S)-13-((2S,4R)-4-hydroxy-2-((4-(4-methylthiazol-5-yl)benzyl)carbamoyl)pyrrolidine-1-carbonyl)-14,14-dimethyl-11-oxo-3,6,9-trioxa-12-azapentadecyl)carbamate], for which the DC50 is less than 50 nM.
